These results are taken from patent US9096853B2, “Modified siRNA molecules incorporating 5-fluoro-2′-deoxyuridine residues to enhance cytotoxicity” (U.S. Department of Veterans Affairs, priority 2012, dated 2015).

d = 2'-deoxy (DNA); r = 2'-OH (RNA)

Data set [1] concerns thymidylate synthase (TS) protein. The data set is described as follows: Immunoblot analysis of TS protein (free and ITC-bound), Odyssey quantitation. The data set is classed as cell-based, human. To be noted: RKO cells, 48 hr. The protocol: FIGS. 1A-B illustrate the effect of FdU incorporation in ssiRNA on TS protein expression. RKO cells were transfected with TS6 ssiRNAs (1 nM) containing various 3′-overhangs. After 6 hr, the medium was replaced. After an additional 48 hr, cells were harvested and processed for immunoblot and qPCR analysis as described in the Materials and Methods section. (A) Representative blot from 4 experiments. (B) All qPCR values represent the mean±S.D. from at least 3 separate experiments performed in triplicate. The normalized amount of TS mRNA from mock-transfected cells (LF2000) was set to 1.0 and all other values compared against that value. ITC, inhibitory ternary complex;
Cells were plated at a density of 1.5×10^5 cells/well. On the following day, ssiRNAs were complexed with Lipofectamine 2000 (LF2000, Invitrogen) in serum-free RPMI-1640 medium and added to the plated cells. After 48 hr, cells were rinsed with PBS and scraped in cell lysis buffer (10 mM Tris pH7.4, 150 mM NaCl, 1 mM EDTA, 1% IGEPAL, 0.5% sodium deoxycholate, and 0.1% SDS) containing freshly added Protease Inhibitor Cocktail (Sigma; St. Louis, Mo.), 1 mM phenylmethylsulfonyl fluoride, and phosphatase inhibitors (Sigma). Lysates were sonicated and then centrifuged at 14,000 rpm for 30 min at 4° C. to remove debris. Cell lysates were stored at −80° C. for future use. For mRNA analysis, total RNA was extracted using Trizol (Invitrogen) and stored at −80° C. for future use.
Protein concentrations of cell lysates were determined using the DC Protein Assay (Bio-Rad; Hercules, Calif.). Equal amounts of protein (30 μg) from each cell lysate were resolved on SDS-PAGE using the method of Laemmli (Reference 19) and transferred onto 0.45 μm nitrocellulose membranes (Bio-Rad). Membranes were blocked and incubated overnight with primary antibodies at 4° C. The following antibodies were used in the experiments: anti-TS (Clone 4H4B1; Invitrogen), anti-TS (#5449; Cell Signaling; San Francisco, Calif.), anti-p21 Waf1/Cip1 (#2947; Cell Signaling), anti-p53 (#sc-126; Santa Cruz Biotechnology; Santa Cruz, Calif.), anti-PARP (#9542; Cell Signaling), anti-Fas (#4233; Cell Signaling), anti-phospho-histone H2A.X (Ser139) (#2577; Cell Signaling), anti-histone H2A.X (#7631; Cell Signaling), anti-phospho-ATM (pS1981; EPITOMICS Inc.; Burlingame, Calif.), anti-ATM (#A1106; Sigma), and anti-α-tubulin (EMD Biosciences; San Diego, Calif.). After multiple TBST washes (1×TBS, 0.1% Tween-20), membranes were incubated with corresponding horseradish peroxidase-conjugated secondary antibodies (Bio-Rad) for 1 hr at room temperature. Proteins were detected by the enhanced chemiluminescence method (SuperSignal West Pico substrate; Pierce; Rockford, Ill.). Quantitation of signal intensities was performed by densitometry on a Xerox scanner using NIH IMAGEJ software.
Immunoblots were prepared as described above. After incubation with anti-TS polyclonal antibody, membranes were blocked with the Odyssey blocking buffer and incubated with IRDye 800CW goat anti-rabbit antibody (LI-COR Biosciences; Lincoln, Nebr., USA) according to the manufacturer instructions. The fluorescent signal was detected and quantified using the Odyssey infrared imaging system (LI-COR).
A general note: In western blotting, separated proteins are transferred to a membrane and probed.

For the next data set, the system named is GC3/TK− cells. The data set is described as follows: Cell proliferation (WST-1) in thymidine kinase-deficient GC3/TK− cells. Type of data set: cell-based, human. To be noted: 6 hr transfection, additional 5 days. The protocol:
FIGS. 2A-B illustrate the effect of TK knockdown on the cytotoxicity of the FdU-modified ssiRNA. (A) RKO cells were transfected with 1 nM TK siRNA (lanes 3 and 4) or Mis-dU/dA (lane 5). After 6 hr, the medium was replaced with fresh medium. On the following day, cells were transfected with TS6-FdU/dA ssiRNA (1 nM) for 6 hr (lanes 2, 4, and 5) after which time, cells were harvested for immunoblot analysis. RKO cells were treated with 5-fluorouracil (5 nM) for 6 hr before harvesting (lane 6). (B) GC3/TK− cells were transfected with various concentrations of TS6-dU/dA or TS6-FdU/dA ssiRNA. After 6 hr, the medium was replaced and after an additional 5 days, cell proliferation was determined with the WST-1 assay;
The human colon cancer RKO cell line, originally obtained from ATCC, has been previously well-characterized and was maintained in RPMI-1640 (Invitrogen; Carlsbad, Calif.) with 10% (v/v) dialyzed fetal bovine serum at 37° C. in a humidified incubator with 5% CO2 (Reference 11). The thymidine kinase-deficient GC3/TK− cells were a gift from Dr. Janet Houghton (Reference 18). Cells were routinely authenticated by morphology and growth curve analysis. […]
RKO cells were plated in 96-well plates at a density of 800 cells/well. […] Cell proliferation/viability was quantified by the WST-1 assay (Roche; Indianapolis, Ind.).
Background: Tetrazolium dyes change colour on reduction, which living cells bring about.

Regarding “TS6-dU/dA: unmodified TS-targeted ssiRNA, 5 dU on 3′-end of sense strand, 5 dA on 3′-end of antisense strand; SEQ ID NO: 3 and 4 (sense GGAUAUUGUCAGUCUUUAGGUUUUU; antisense CCUAAAGACUGACAAUAUCCAAAAA; sense: sugars from the 5' end r20 d5, backbone and T or U not given here; antisense: sugars from the 5' end r20 d5, backbone not given here)”, the “suppression of expression of TS protein” value in data set [1] (1 nM) was about 80%. For the same substance, the “Free TS (%)” value in data set [1] (ssiRNA 1 nM, normalized to free TS protein in mock-transfected cells (LF2000) set to 100%, mean ± S.D., 6 experiments) is 22.6 ± 7.5%. For the same substance, the IC50 with GC3/TK− cells was found to be 51.4 ± 27.8 nM.

A word on the IC50: it is the concentration that gives 50% inhibition. A lower IC50 goes with inhibition by little substance.
